This note sets out measurements from patent US12404295B2, “(Hetero)aryl-methyl-thio-beta-D-galactopyranoside derivatives” (Idorsia Pharmaceuticals Ltd, priority 2019, dated 2025).

SMILES strings stand for the structures.

Sequence of human Gal-3 (hGal-3) (P17931 whole entry): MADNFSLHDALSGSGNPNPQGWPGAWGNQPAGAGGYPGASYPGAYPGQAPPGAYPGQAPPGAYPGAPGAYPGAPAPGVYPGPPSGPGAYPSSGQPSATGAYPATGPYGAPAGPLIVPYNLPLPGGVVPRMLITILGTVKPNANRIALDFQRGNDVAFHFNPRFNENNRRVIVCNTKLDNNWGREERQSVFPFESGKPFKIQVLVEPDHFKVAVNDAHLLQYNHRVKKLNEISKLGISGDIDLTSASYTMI

One experiment addresses human Gal-3 (hGal-3) (Homo sapiens (Human), UniProt P17931). In words: competitive binding assay: biotinylated hGal-3 binding to microplate-adsorbed asialofetuin (ASF). As to conditions: Gal-3 inhibition; binding of biotinylated hGal-3 to ASF; mean values; read-out: IC50. As to the method: If not explicitly mentioned otherwise, the inhibition data refer to the binding of biotinylated human Gal-3 (hGal-3).
(§1) Evaluation of Compound Inhibitory Activity (IC50)
The inhibitory activity of compounds is determined in competitive binding assays.
Briefly, compounds are serially diluted in DMSO (working dilutions).
(§2) Plates are incubated for 3 hours at 4° C., then washed with cold assay buffer (3×50 uL), incubated for 1 hour with 25 μL/well of a streptavidin-peroxidase solution (diluted in assay buffer to 80 ng/mL) at 4° C., followed by further washing steps with assay buffer (3×50 uL). Finally, 25 μL/well of ABTS substrate is added.
(§3) The calculated IC50 values may fluctuate depending on the daily assay performance. Fluctuations of this kind are known to those skilled in the art. IC50 values from several measurements are given as mean values.
For the molecule `COC(=O)N1CC(O)(C(S[C@@H]2O[C@H](CO)[C@H](O)[C@H](n3cc(-c4cc(F)c(F)c(F)c4)nn3)[C@H]2O)c2ccccc2C(F)(F)F)C1` (stereo partly drawn) [Example 2..58.112., Methyl 3-((((2S,3R,4S,5R,6R)-3,5-dihydroxy-6-(hydroxymethyl)-4-(4-(3,4,5-trifluorophenyl)-1H-1,2,3-triazol-1-yl)tetrahydro-2H-pyran-2-yl)thio)(2-(trifluoromethyl)phenyl)methyl)-3-hydroxyazetidine-1-carboxylate], the IC50 is 400 nM.
On the same count and under the same terms, the same measure for `CC(C)(O)C(S[C@@H]1O[C@H](CO)[C@H](O)[C@H](n2cc(-c3cc(F)c(F)c(F)c3)nn2)[C@H]1O)c1ccccc1Cl` (stereo partly drawn) [Example 2.31.111., (2S,3R,4S,5R,6R)-2-((1-(2-Chlorophenyl)-2-hydroxy-2-methylpropyl)thio)-6-(hydroxymethyl)-4-(4-(3,4,5-trifluorophenyl)-1H-1,2,3-triazol-1-yl)tetrahydro-2H-pyran-3,5-diol]: 410 nM.
On the same count and under the same terms, in the case of `CS(=O)(=O)N1CC(O)(C(S[C@@H]2O[C@H](CO)[C@H](O)[C@H](n3cc(-c4cc(F)c(F)c(F)c4)nn3)[C@H]2O)c2ccccc2C(F)(F)F)C1` (stereo partly drawn) [Example 2..57.112., (2S,3R,4S,5R,6R)-2-(((3-Hydroxy-1-(methylsulfonyl)azetidin-3-yl)(2-(trifluoromethyl)phenyl)methyl)thio)-6-(Hydroxymethyl)-4-(4-(3,4,5-trifluorophenyl)-1H-1,2,3-triazol-1-yl)tetrahydro-2H-pyran-3,5-diol] it was 220 nM.

The experiment is the same for the next values; noted with them: Table 5; read-out: IC50 (Gal-3 inhibition).
For `Cc1ccccc1C(S[C@@H]1O[C@H](CO)[C@H](O)[C@H](n2cc(-c3cc(F)c(F)c(F)c3)nn2)[C@H]1O)C1(O)CC(C)(C)C1` (stereo partly drawn) [Example 2.35.102., (2S,3R,4S,5R,6R)-2-(((1-Hydroxy-3,3-dimethylcyclobutyl)(o-tolyl)methyl)thio)-6-(hydroxymethyl)-4-(4-(3,4,5-trifluorophenyl)-1H-1,2,3-triazol-1-yl)tetrahydro-2H-pyran-3,5-diol], the half-inhibitory concentration (IC50) was determined as 350 nM.
Same read-out and setting: the same measure for `OC[C@H]1O[C@@H](S[C@@H](c2ncccc2C(F)(F)F)C2(O)CCCCC2)[C@H](O)[C@@H](n2cc(-c3cc(F)c(F)c(F)c3)nn2)[C@H]1O` [Example 2.39.125S., (2S,3R,4S,5R,6R)-2-(((S)-(1-Hydroxycyclohexyl)(3-(trifluoromethyl)pyridin-2-yl)methyl)thio)-6-(hydroxymethyl)-4-(4-(3,4,5-trifluorophenyl)-1H-1,2,3-triazol-1-yl)tetrahydro-2H-pyran-3,5-diol]: 3000 nM.

The same experiment, now with this note: Table 11; read-out: IC50 (Gal-3 inhibition).
`CO[C@@H]1[C@@H](n2cc(-c3cc(F)c(F)c(F)c3)nn2)[C@@H](O)[C@@H](CO)O[C@H]1S[C@@H](c1ncccc1C)[C@@]1(O)CCOC(C)(C)C1` [Example 2.43.126SR.I., (2R,3R,4S,5R,6S)-6-(((S)-((R)-4-Hydroxy-2,2-dimethyltetrahydro-2H-pyran-4-yl)(3-methylpyridin-2-yl)methyl)thio)-2-(hydroxymethyl)-5-methoxy-4-(4-(3,4,5-trifluorophenyl)-1H-1,2,3-triazol-1-yl)tetrahydro-2H-pyran-3-ol]: the IC50 was 3500 nM.

The target of the next experiment is human Gal-1 (hGal-1) (Homo sapiens (Human), UniProt P09382). Description: competitive binding assay: biotinylated hGal-1 binding to microplate-adsorbed asialofetuin (ASF). As to conditions: Table 15; read-out: IC50 (Galectin-1 inhibition). As to the method: Inhibition data of the epimers R and S of selected Examples are also listed.
Sequence of human Gal-1 (hGal-1) (P09382 whole entry): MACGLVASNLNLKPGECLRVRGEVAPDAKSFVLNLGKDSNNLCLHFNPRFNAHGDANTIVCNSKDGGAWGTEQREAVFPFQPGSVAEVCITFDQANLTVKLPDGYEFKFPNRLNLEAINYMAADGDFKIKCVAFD
as §1
The inhibitory activity of compounds is determined in competitive binding assays. This spectrophotometric assay measures the binding of biotinylated human Gal-3 (hGal-3) or human Gal-1 (hGal-1), respectively, to a microplate-adsorbed glycoprotein, asialofetuin (ASF) (Proc Natl Acad Sci USA. 2013 Mar. 26; 110(13):5052-7.).
Briefly, compounds are serially diluted in DMSO (working dilutions). ASF-coated 384 well plates are supplemented with 22.8 μL/well of biotinylated hGal-3 or hGal-1 in assay buffer (i.e. 300-1000 ng/mL biotinylated hGal-3 or hGal-1) to which 1.2 μL of compound working dilutions are added and mixed.
as §2, §3
For the molecule `Cc1ccccc1C(S[C@@H]1O[C@H](CO)[C@H](O)[C@H](n2cc(-c3cc(F)c(F)c(F)c3)nn2)[C@H]1O)C1(O)CC(C)(C)C1` (stereo partly drawn) [Example 2.35.102., (2S,3R,4S,5R,6R)-2-(((1-Hydroxy-3,3-dimethylcyclobutyl)(o-tolyl)methyl)thio)-6-(hydroxymethyl)-4-(4-(3,4,5-trifluorophenyl)-1H-1,2,3-triazol-1-yl)tetrahydro-2H-pyran-3,5-diol], the 50% inhibitory concentration (IC50) came to 6220 nM.
Same read-out and setting: the same measure for `OC[C@H]1O[C@@H](S[C@@H](c2ncccc2C(F)(F)F)C2(O)CCCCC2)[C@H](O)[C@@H](n2cc(-c3cc(F)c(F)c(F)c3)nn2)[C@H]1O` [Example 2.39.125S., (2S,3R,4S,5R,6R)-2-(((S)-(1-Hydroxycyclohexyl)(3-(trifluoromethyl)pyridin-2-yl)methyl)thio)-6-(hydroxymethyl)-4-(4-(3,4,5-trifluorophenyl)-1H-1,2,3-triazol-1-yl)tetrahydro-2H-pyran-3,5-diol]: 21800 nM.
Regarding `OC[C@H]1O[C@@H](S[C@H](c2ccccc2Cl)C2(O)CCC(F)(F)CC2)[C@H](O)[C@@H](n2cc(-c3cc(F)c(F)c(F)c3)nn2)[C@H]1O` [Example 2.44.111R., (2S,3R,4S,5R,6R)-2-(((R)-(2-Chlorophenyl)(4,4-difluoro-1-hydroxycyclohexyl)methyl)thio)-6-(hydroxymethyl)-4-(4-(3,4,5-trifluorophenyl)-1H-1,2,3-triazol-1-yl)tetrahydro-2H-pyran-3,5-diol], the IC50 turned out to be 1060 nM.
Still for that read-out and setting: the same measure for `CO[C@@H]1[C@@H](n2cc(-c3cc(F)c(F)c(F)c3)nn2)[C@@H](O)[C@@H](CO)O[C@H]1SC(c1ncccc1C)C1(O)CCC2(CCOCC2)CC1` (stereo partly drawn) [Example 2.72.126.I., 9-((((2S,3R,4S,5R,6R)-5-Hydroxy-6-(hydroxymethyl)-3-methoxy-4-(4-(3,4,5-trifluorophenyl)-1H-1,2,3-triazol-1-yl)tetrahydro-2H-pyran-2-yl)thio)(3-methylpyridin-2-yl)methyl)-3-oxaspiro[5.5]undecan-9-ol]: 730 nM; for `OC[C@H]1O[C@@H](S[C@@H](c2ccccc2Cl)C2(O)CCC(F)(F)CC2)[C@H](O)[C@@H](n2cc(-c3cc(F)c(F)c(F)c3)nn2)[C@H]1O` [Example 2.44.111S., (2S,3R,4S,5R,6R)-2-(((S)-(2-Chlorophenyl)(4,4-difluoro-1-hydroxycyclohexyl)methyl)thio)-6-(hydroxymethyl)-4-(4-(3,4,5-trifluorophenyl)-1H-1,2,3-triazol-1-yl)tetrahydro-2H-pyran-3,5-diol]: 47500 nM.
For `CC(C)Cc1c([C@@H](S[C@@H]2O[C@H](CO)[C@H](O)[C@H](n3cc(-c4cc(F)c(F)c(F)c4)nn3)[C@H]2O)C2(O)CCC(F)(F)CC2)noc1C1CC1` [Example 2.44.131 R., (2S,3R,4S,5R,6R)-2-(((R)-(5-Cyclopropyl-4-isobutylisoxazol-3-yl)(4,4-difluoro-1-hydroxycyclohexyl)methyl)thio)-6-(hydroxymethyl)-4-(4-(3,4,5-trifluorophenyl)-1H-1,2,3-triazol-1-yl)tetrahydro-2H-pyran-3,5-diol], the IC50 turned out to be 90 nM.
For `CC(C)Cc1c(C(S[C@@H]2O[C@H](CO)[C@H](O)[C@H](n3cc(-c4cc(F)c(F)c(F)c4)nn3)[C@H]2O)C2(O)CCC(F)(F)CC2)noc1C1CC1` (stereo partly drawn) [Example 2.44.131., (2S,3R,4S,5R,6R)-2-(((5-Cyclopropyl-4-isobutylisoxazol-3-yl)(4,4-difluoro-1-hydroxycyclohexyl)methyl)thio)-6-(hydroxymethyl)-4-(4-(3,4,5-trifluorophenyl)-1H-1,2,3-triazol-1-yl)tetrahydro-2H-pyran-3,5-diol], the IC50 is 220 nM.
On the same count and under the same terms, in the case of `CO[C@@H]1[C@@H](n2cc(-c3cnc(F)c(C)c3)nn2)[C@@H](O)[C@@H](CO)O[C@H]1SC(c1ncccc1C)C1(O)CCC(F)(F)CC1` (stereo partly drawn) [Example 24.44.126.I, (2R,3R,4S,5R,6S)-6-(((4,4-Difluoro-1-hydroxycyclohexyl)(3-methylpyridin-2-yl)methyl)thio)-4-(4-(6-fluoro-5-methylpyridin-3-yl)-1H-1,2,3-triazol-1-yl)-2-(hydroxymethyl)-5-methoxytetrahydro-2H-pyran-3-ol] it was 160 nM; in that of `CO[C@@H]1[C@@H](n2cc(-c3cc(F)c(F)c(F)c3)nn2)[C@@H](O)[C@@H](CO)O[C@H]1S[C@H](c1ccccc1C(F)(F)F)[C@]1(O)CCOC(C)(C)C1` [Example 2.43.112RS.I., (2R,3R,4S,5R,6S)-6-(((R)-((S)-4-Hydroxy-2,2-dimethyltetrahydro-2H-pyran-4-yl)(2-(trifluoromethyl)phenyl)methyl)thio)-2-(hydroxymethyl)-5-methoxy-4-(4-(3,4,5-trifluorophenyl)-1H-1,2,3-triazol-1-yl)tetrahydro-2H-pyran-3-ol], 1300 nM.
On the same count and under the same terms, in the case of `Cc1nc(C(S[C@@H]2O[C@H](CO)[C@H](O)[C@H](n3cc(-c4cc(F)c(F)c(F)c4)nn3)[C@H]2O)C(C)(C)O)c(C)s1` (stereo partly drawn) [Example 2.31.123., (2S,3R,4S,5R,6R)-2-((1-(2,5-Dimethylthiazol-4-yl)-2-hydroxy-2-methylpropyl)thio)-6-(hydroxymethyl)-4-(4-(3,4,5-trifluorophenyl)-1H-1,2,3-triazol-1-yl)tetrahydro-2H-pyran-3,5-diol] it was 1740 nM.
Still for that read-out and setting: in the case of `Cc1nc([C@H](S[C@@H]2O[C@H](CO)[C@H](O)[C@H](n3cc(-c4cc(F)c(F)c(F)c4)nn3)[C@H]2O)C(C)(C)O)c(C)s1` [Example 2.31.123S., (2S,3R,4S,5R,6R)-2-(((S)-1-(2,5-Dimethylthiazol-4-yl)-2-hydroxy-2-methylpropyl)thio)-6-(hydroxymethyl)-4-(4-(3,4,5-trifluorophenyl)-1H-1,2,3-triazol-1-yl)tetrahydro-2H-pyran-3,5-diol] it was 29400 nM.
As for `Cc1nc([C@@H](S[C@@H]2O[C@H](CO)[C@H](O)[C@H](n3cc(-c4cc(F)c(F)c(F)c4)nn3)[C@H]2O)C(C)(C)O)c(C)s1` [Example 2.31.123R., (2S,3R,4S,5R,6R)-2-(((R)-1-(2,5-Dimethylthiazol-4-yl)-2-hydroxy-2-methylpropyl)thio)-6-(hydroxymethyl)-4-(4-(3,4,5-trifluorophenyl)-1H-1,2,3-triazol-1-yl)tetrahydro-2H-pyran-3,5-diol], the IC50 worked out at 1190 nM.

By IC50 is commonly meant the concentration that gives 50% inhibition.
